# From article PMC11472058, “Trinucleotide cap analogs with triphosphate chain modifications: synthesis, properties, and evaluation as mRNA capping reagents” (Nucleic Acids Research, 2024)
# Biological target: T1, human eIF4E1a (Homo sapiens, UniProt P06730)
# T1 construct: made in house; host or cells: E. coli Rosetta 2 (DE3)pLysS
# Test: Fluorescence quenching titration (FQT) binding assay with eIF4E
# Method: The human eIF4E1a protein was expressed without affinity tag in E. coli Rosseta 2 (DE3)pLysS strain (Novagen) under conditions leading to accumulation of the produced protein in inclusion bodies ([48]). The protein was extracted from inclusion bodies with buffer containing 6 M guanidine hydrochloride, refolded by one-step dialysis against 50 mM HEPES/KOH (pH 7.2), 100 mM KCl, 0.5 mM EDTA, 2 mM DTT, and purified by ion exchange chromatography on HiTrap SP HP 5 ml column (GE Healthcare) using salts gradient. Finally, protein was filtered using Ultrafree MC-HV Centrifugal PVDF filters with 0.45 μm membrane pore (Millipore) to remove protein aggregates and its concentration was determined spectrophotometrically assuming the theoretical extinction coefficient ϵ280nm = 52 940 L mol^−1cm^−1—calculated from amino acid composition using algorithm on ExPASy Server.
# Fluorescence titration measurements were carried out on a LS-55 spectrofluorometer (Perkin Elmer Co., Norwalk, CT, USA) in a quartz semi-micro cuvette (Hellma, Germany) with optical lengths 4 mm and 10 mm for absorption and emission, respectively, which was thermostated at 20.0 ± 0.2 °C. The titrations were performed in 50 mM Hepes/KOH pH 7.2, 100 mM KCl, 0.5 mM EDTA and 1 mM DTT by adding 1 μl aliquots of increasing concentrations of the cap solutions to 1.4 ml of 0.1 μM eIF4E1a solution. The eIF4E1a fluorescence was excited at 280 nm and the fluorescence intensity was monitored at a single wavelength 340 nm. The measured fluorescence intensities were corrected for dilution (<4%) and for the inner filter effect. Association equilibrium constants (Kas) were obtained by fitting the theoretical curve for fluorescence intensity (F) upon total concentration of cap analogs ([L]) to the titration data according to the equation: […]
# with the concentration of the cap analogs–eIF4E1a complex [cx] given by:
# where Δϕ stands for the difference between the fluorescence efficiencies of the apo- and cap analog bound proteins; ϕlig-free is the fluorescence efficiency of the free cap analog; F(0) is the initial fluorescence, and Pact is the total concentration of the active protein ([49]). The final KAS values were calculated as a weighted average from three independent titrations and represented as the KD values. Numerical least-squares nonlinear regression analysis was performed using ORIGIN 2021 from Microcal Software Inc., USA.
# Recognition of the mRNA 5′ cap by translation initiation factor 4E (eIF4E) is considered to be the rate-limiting step for the entire translation process ([63],[64]), therefore we investigated the affinity of novel trinucleotide cap analogs to the canonical human eIF4E1a protein by fluorescence quenching titration (FQT; Table 1 column 1, Figure 3) ([65]). As a reference, we determined the dissociation constant between heIF4E1a and the trinucleotide cap-1 structure m^7GpppAmpG, which was equal to 42 nM and very close to the analogous value previously determined for mouse Δ27NeIF4E (46 nM) ([12]). In the case of all modifications tested, the KD values for cap-heIF4E1a complexes are consistent with the results previously obtained for dinucleotide counterparts and murine eIF4E protein, although the magnitude of the modification effect is generally lower. The most tightly bound tetraphosphate analogs (compounds 10–12) show KD values of 6–7 nM, which means that their affinity is about 6-fold higher compared to the triphosphate counterparts. The affinities decrease upon CH2 or CCl2 modification of the tetraphosphate bridge (compounds 13–16), but they are still 4–5 times higher than for the triphosphate analogs with the same adenosine methylation pattern.
# T1 sequence (P06730 whole entry): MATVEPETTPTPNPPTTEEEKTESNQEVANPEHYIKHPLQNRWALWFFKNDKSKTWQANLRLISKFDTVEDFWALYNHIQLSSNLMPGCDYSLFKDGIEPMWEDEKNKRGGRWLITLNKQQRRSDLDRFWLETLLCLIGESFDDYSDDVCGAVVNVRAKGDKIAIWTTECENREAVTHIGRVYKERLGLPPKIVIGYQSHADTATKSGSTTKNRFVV
structure (smiles),measurement,setting,value
"CO[C@@H]1[C@H](OP(=O)(O)OC[C@H]2O[C@@H](n3cnc4c(=O)[nH]c(N)nc43)[C@H](O)[C@@H]2O)[C@@H](CSP(=O)([O-])OP(=O)(O)OP(=O)(O)OC[C@H]2O[C@@H](n3c[n+](C)c4c(O)nc(N)nc43)[C@H](O)[C@@H]2O)O[C@H]1n1cnc2c(N)ncnc21 [Compound 8, m^7Gppp^5’SAmpG]",effect of modification on binding affinity for heIF4E1a (in words),compared to corresponding triphosphates,virtually no effect on binding affinity
same,Kd,"fluorescence quenching titration, 20 °C, pH 7.2, average of triplicates ± SD, read-out: heIF4E1a KD",0.0487 ± 0.0012 µM
